Counter-ions that a name gives are not always drawn.

The first experiment addresses T1, human D4 receptor (D4.2 sub-type) (Homo sapiens, UniProt P21917, DEL271-302).
T1 sequence (P21917 with tags, fused parts or gaps DEL271-302): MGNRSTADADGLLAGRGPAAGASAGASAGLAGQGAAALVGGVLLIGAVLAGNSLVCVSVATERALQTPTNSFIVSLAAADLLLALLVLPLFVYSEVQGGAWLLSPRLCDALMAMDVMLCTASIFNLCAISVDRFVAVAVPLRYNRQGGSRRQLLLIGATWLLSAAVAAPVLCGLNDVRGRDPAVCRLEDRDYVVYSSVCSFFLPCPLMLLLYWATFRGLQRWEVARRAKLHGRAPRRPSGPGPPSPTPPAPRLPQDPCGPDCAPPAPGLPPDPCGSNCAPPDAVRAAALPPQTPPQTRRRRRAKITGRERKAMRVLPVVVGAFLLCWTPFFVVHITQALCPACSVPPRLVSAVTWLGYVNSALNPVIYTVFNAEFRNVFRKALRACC
Nature of the experiment: D4 receptor binding assay (3H-spiperone displacement). Particulars: 3H-spiperone 0.25 nM, HEK cell membranes, human D4.2; read-out: D4 RBA Ki. How it is done:
D4 receptor-binding affinities of the compounds were evaluated according to their ability to reduce binding of ^3H-spiperone as compared to the reference compound clozapine. The potency of the test compound to reduce ^3H-spiperone binding directly correlated to its binding affinity for the receptor.
[…] (human embryonic kidney) cells stably transfected with human D4 receptor (D4.2 sub-type) were grown in NUNC cell factories for 5 days (75% confluency) without a media change and removed with versene (approximately 19 mg of cells per cell factory tray). The cells were then centrifuged in a Sorval centrifuge for 10 min, 5000 rpm (GS3 rotor) and the pellets quickly frozen in liquid nitrogen and stored at −80° C. until used in binding assay. When used in the assay, cells were thawed on ice for 20 min and then 10 mL of incubation buffer (50 mM Tris, 1 mM EDTA, 4 mM MgCl2, 5 mM KCl, 1.5 mM CaCl2, 120 mM NaCl, pH 7.4) was added. The cells were then vortexed to resuspend pellet and homogenized with a Kinematica, CH-6010 Kriens-LU, homogenizer for 15 seconds at setting 7. Concentration of receptor protein was determined using the Pierce BCA assay.
The incubation was started by the addition of 100 μl (50 μg protein) membrane homogenate to a solution of 300 μl incubation buffer and 100 μl (0.25 nM final conc.) ^3H-spiperone (90 Ci/mmol, Amersham, diluted in borosilicate glass vial) in 96-well polypropylene plates (1 mL per well). The plates were vortexed and incubated at room temperature for 90 minutes. The binding reaction was stopped by filtering using a Packard Harvester. The samples were filtered under vacuum over glass fibre filter plates (Whatman GF/B) presoaked for 2 hours in 0.3% polyethylenimine (PEI) in 50 mM Tris buffer (pH 7.4). The filters were then washed 6 times with 7 mL ice cold 50 mM Tris buffer (pH 7.4). The filter plates were dried overnight and 35 μl of Microscint-O (Packard) was added. The plates were sealed and counted in the Packard Top Count (3 minutes per well).
The incubation was started by the addition of 100 μl (50 μg protein) membrane homogenate to a solution of 200 μl incubation buffer, 100 μl ^3H-spiperone (90 Ci/mmol, Amersham, diluted in borosilicate glass vial to 0.25 nM final conc.) and 100 μl (30 μM final conc.) of fresh dopamine (Research Biochemicals Inc., light protected and dissolved in incubation buffer) in 96-well polypropylene plates (1 mL per well). The plates were vortexed and incubated at room temperature for 90 minutes at which time the binding reaction was stopped by filtering. The filters were washed and counted using the same procedure as in the total binding assay described above to give the non-specific binding value (NSB).
The incubation was started by the addition, in 96-well polypropylene plates (1 mL per well), of 100 μl (50 μg protein) membrane homogenate to a solution of 200 μl incubation buffer, 100 μl (0.25 nM final conc.) ^3H-spiperone (90 Ci/mmol, Amersham, diluted in borosilicate glass vial) and 100 μl of test compound that was prepared from 1 mM stock dissolved in DMSO and stored at −20° C. in polypropylene cryogenic storage vials until dilution in incubation buffer in 96-well polypropylene plates. The plates were vortexed and incubated at room temperature for 90 minutes at which time the binding reaction was stopped by filtering. The filters were washed and counted using the same procedure as in the total binding assay described above to give the displacement binding value (BD).
The test compounds were initially assayed at 1 and 0.1 μM and then at a range of concentrations chosen such that the middle dose would cause about 50% inhibition of ^3H-spiperone binding. Specific binding in the absence of test compound (B0) was the difference of total binding (BT) minus non-specific binding (NSB) and similarly specific binding (in the presence of test compound) (B) was the difference of displacement binding (BD) minus non-specific binding (NSB). […]
For the molecule `Fc1ccccc1CNCCCOc1cccc(-c2noc3ccsc23)c1` [Compound 2, (2-fluoro-benzyl)-[3-(3-thieno[2,3-d]isoxazol-3-yl-phenoxy)-propyl]-amine], the Ki amounted to 62 nM.

`Clc1ccc(CNCCCOc2cccc(-c3noc4ccsc34)c2)cc1` [Compound 4, (4-chloro-benzyl)-[3-(3-thieno[2,3-d]isoxazol-3-yl-phenoxy)-propyl]-amine]: the Ki was 45 nM.

In the case of `COc1ccc(CNCCCOc2cccc(-c3noc4ccsc34)c2)cc1` [Compound 5, (4-methoxy-benzyl)-[3-(3-thieno[2,3-d]isoxazol-3-yl-phenoxy)-propyl]-amine], the Ki turned out to be 92 nM.

Consider `c1cc(OCCCNCc2cccs2)cc(-c2noc3ccsc23)c1` [Compound 6, [3-(3-thieno[2,3-d]isoxazol-3-yl-phenoxy)-propyl]-thiophen-2-ylmethylamine], for which the Ki is 27 nM.

As for `c1cncc(CNCCCOc2cccc(-c3noc4ccsc34)c2)c1` [Compound 8, pyridin-3-ylmethyl-[3-(3-thieno[2,3-d]isoxazol-3-yl-phenoxy)-propyl]-amine], the Ki was 76 nM.

As for `c1ccc(CNCCOc2cccc(-c3noc4ccsc34)c2)cc1` [Compound 16, benzyl-[2-(3-thieno[2,3-d]isoxazol-3-yl-phenoxy)-ethyl]-amine], the Ki stood at 7.6 nM.

`COc1ccccc1CNCCOc1cccc(-c2noc3ccsc23)c1` [Compound 21, (2-methoxy-benzyl)-[2-(3-thieno[2,3-d]isoxazol-3-yl-phenoxy)-ethyl]-amine]: the Ki worked out at 14.2 nM.

Regarding `c1cc(OCCNCc2ccsc2)cc(-c2noc3ccsc23)c1` [Compound 33, [2-(3-thieno[2,3-d]isoxazol-3-yl-phenoxy)-ethyl]-thiophen-3-ylmethylamine hydrochloride], the Ki was 15 nM.

Consider `COc1cccc(CNCCOc2cccc(-c3noc4ccsc34)c2)c1` [Compound 36, (3-methoxy-benzyl)-[2-(3-thieno[2,3-d]isoxazol-3-yl-phenoxy)-ethyl]-amine], for which the Ki is 13 nM.

Regarding `Fc1ccc(CNCCOc2cccc(-c3noc4ccsc34)c2)cc1F` [Compound 37, (3,4-difluoro-benzyl)-[2-(3-thieno[2,3-d]isoxazol-3-yl-phenoxy)-ethyl]-amine], the Ki amounted to 32 nM.

With `Cc1ccc(CNCCCOc2cccc(-c3noc4ccsc34)c2)cc1` [Compound 39, (4-methyl-benzyl)-[3-(3-thieno[2,3-d]isoxazol-3-yl-phenoxy)-propyl]-amine], the Ki stood at 20 nM.

In the case of `COc1cccc(CNCCCOc2cccc(-c3noc4ccsc34)c2)c1` [Compound 41, (3-methoxy-benzyl)-[3-(3-thieno[2,3-d]isoxazol-3-yl-phenoxy)-propyl]-amine], the Ki was determined as 44 nM.

Turning to `Fc1ccc(CNCCCOc2cccc(-c3noc4ccsc34)c2)cc1F` [Compound 42, (3,4-difluoro-benzyl)-[3-(3-thieno[2,3-d]isoxazol-3-yl-phenoxy)-propyl]-amine], the Ki was 47 nM.

The same experiment, now with this note: @ 1 μM test compound; 3H-spiperone binding; read-out: D4 RBA % Inhibition (@ 1 μM).
As to `OC(CNCCCOc1cccc(-c2noc3ccsc23)c1)c1ccccc1` (centres unmarked) [Compound 9, 1-phenyl-2-[3-(3-thieno[2,3-d]isoxazol-3-yl-phenoxy)-propylamino]-ethanol], the inhibition at 1 µM worked out at 73%.

For `c1ccc(N2CCN(CCCOc3cccc(-c4noc5ccsc45)c3)CC2)cc1` [Compound 10, 3-{3-[3-(4-phenyl-piperazin-1-yl)-propoxy]-phenyl}-thieno[2,3-d]isoxazole], the inhibition at 1 µM was found to be 95%.

As to `Fc1ccc(N2CCN(CCCOc3cccc(-c4noc5ccsc45)c3)CC2)cc1` [Compound 11, 3-(3-{3-[4-(4-fluoro-phenyl)-piperazin-1-yl]-propoxy}-phenyl)-thieno[2,3-d]isoxazole], the inhibition at 1 µM amounted to 91%.

For the molecule `Fc1ccccc1N1CCN(CCCOc2cccc(-c3noc4ccsc34)c2)CC1` [Compound 12, 3-(3-{3-[4-(2-fluoro-phenyl)-piperazin-1-yl]-propoxy}-phenyl)-thieno[2,3-d]isoxazole], the inhibition at 1 µM is 94%.

On to `NS(=O)(=O)c1ccc(CNCCCOc2cccc(-c3noc4ccsc34)c2)cc1` [Compound 14, 4-{[3-(3-thieno[2,3-d]isoxazol-3-yl-phenoxy)-propylamino]-methyl}-benzenesulfonamide], for which the inhibition at 1 µM was 60%.

In the case of `NS(=O)(=O)c1ccc(CCNCCCOc2cccc(-c3noc4ccsc34)c2)cc1` [Compound 15, 4-{2-[3-(3-thieno[2,3-d]isoxazol-3-yl-phenoxy)-propylamino]-ethyl}-benzenesulfonamide], the inhibition at 1 µM was 65%.

Turning to `Clc1ccc(CNCCOc2cccc(-c3noc4ccsc34)c2)cc1Cl` [Compound 22, (3,4-dichloro-benzyl)-[2-(3-thieno[2,3-d]isoxazol-3-yl-phenoxy)-ethyl]-amine], the inhibition at 1 µM stood at 99%.

In the case of `c1cc(OCCNCc2cccs2)cc(-c2noc3ccsc23)c1` [Compound 24, [2-(3-thieno[2,3-d]isoxazol-3-yl-phenoxy)-ethyl]-thiophen-2-ylmethyl-amine], the inhibition at 1 µM is 95%.

Consider `c1cncc(CNCCOc2cccc(-c3noc4ccsc34)c2)c1` [Compound 25, pyridin-3-ylmethyl-[2-(3-thieno[2,3-d]isoxazol-3-yl-phenoxy)-ethyl]-amine], for which the inhibition at 1 µM was 93%.

In the case of `c1ccc(N2CCN(CCOc3cccc(-c4noc5ccsc45)c3)CC2)cc1` [Compound 28, 3-{3-[2-(4-phenyl-piperazin-1-yl)-ethoxy]-phenyl}-thieno[2,3-d]isoxazole], the inhibition at 1 µM stood at 78%.

Take `c1cc(OCCN2CCc3ccccc3C2)cc(-c2noc3ccsc23)c1` [Compound 29, 2-[2-(3-thieno[2,3-d]isoxazol-3-yl-phenoxy)-ethyl]-1,2,3,4-tetrahydroisoquinoline]: the inhibition at 1 µM was 60%.

In the case of `Fc1ccccc1CNCCOc1cccc(-c2noc3ccsc23)c1` [Compound 34, (2-fluoro-benzyl)-[2-(3-thieno[2,3-d]isoxazol-3-yl-phenoxy)-ethyl]-amine], the inhibition at 1 µM was found to be 93%.

Turning to `Clc1ccccc1CNCCOc1cccc(-c2noc3ccsc23)c1` [Compound 35, (2-chloro-benzyl)-[2-(3-thieno[2,3-d]isoxazol-3-yl-phenoxy)-ethyl]-amine], the inhibition at 1 µM was 88%.

For `c1cc(OCCNC2CCc3ccccc32)cc(-c2noc3ccsc23)c1` (centres unmarked) [Compound 38, indan-1-yl-[2-(3-thieno[2,3-d]isoxazol-3-yl-phenoxy)-ethyl)-amine], the inhibition at 1 µM stood at 95%.

With `Clc1ccccc1CNCCCOc1cccc(-c2noc3ccsc23)c1` [Compound 40, (2-chloro-benzyl)-[3-(3-thieno[2,3-d]isoxazol-3-yl-phenoxy)-propyl]-amine], the inhibition at 1 µM stood at 89%.

The same experiment, now with this note: read-out: D4 RBA % Inhibition (@ 1 μM).
As for `c1ccc(C2CCN(CCOc3cccc(-c4noc5ccsc45)c3)CC2)cc1` [Compound 30, 3-{3-[2-(4-phenyl-piperidin-1-yl)-ethoxy]-phenyl}-thieno[2,3-d]isoxazole hydrochloride], the inhibition at 1 µM was found to be 68%.

Usually Ki stands for a dissociation constant, usually derived from enzyme kinetics or from competition with a known ligand. The term inhibition denotes the change of the read-out against control, counted positive when it falls.

For the origin of these results see US7091199B1, “Thienoisoxazole phenoxy unsubstituted ethyl and propyl derivatives useful as d4 antagonists” (Aventis Pharmaceuticals Inc., priority 1999, dated 2006).
